This is an account of results in PMC12636026 (Journal of the American Chemical Society, 2025).

“Also recorded” adds a separate entry of the source.

One series concerns trypsin. As to the kind of experiment: 12 µM trypsin (bovine pancreas) in 100 mM HEPES buffer pH 7.5. The note with it: 37°C, up to 48 h.
The conditions of series [1]: Zn(II)/phosphate challenge, relaxivity, 2.5 mM complex and 2.5 mM Zn(II); ref Laurent et al.; cited from earlier work. The text has this:
The stability of MRI contrast agents is often benchmarked by the “ratio index”, defined as the time for the relaxation value to drop to 80% of its initial value under Zn(II)/phosphate challenge. […] Laurent et al. monitored complex integrity using relaxivity under equimolar condi ...

The conditions of series [2]: clinical agent; ref citation number not given; cited from earlier work. The text has this:
These findings advance our understanding of ligand suitability in MRI contrast agent design and illustrate the potential of metallo-coiled coils to surpass the performance limits of traditional inorganic complexes. By exploiting the modular natur ...

Take “Ac-G IAAIEQK IAANEWK DAAIEQK IAAIEQK IAAIEQK G-NH2 [MB1-2]”: the cleaved bond result in the series with trypsin is reported as “Lys-I, within 30 min; also recorded: Lys15-D, within 30 min; also recorded: Lys-G, within 30 min”.

Turning to “Ac-G IAAIEQK IAANEWK DAAIXQK IAAIEQK IAAIEQK G-NH2 [KH2-20X]”, in the series with trypsin, the cleaved bond entry is on record as “Lys-G, major, 30 min; also recorded: Lys-I, 30 min”; the fragment found result is given as “trimeric cross-linked IAANEWK DAAIEQK (peak 5), 30 min”; the not cleaved entry is “uncleaved IAANEWK DAAIEQK stretch; individual IAANEWK and DAAIEQK fragments absent”.

As to `CNC[C@H](O)[C@@H](O)[C@H](O)[C@H](O)CO.O=C([O-])CN1CCN(CC(=O)[O-])CCN(CC(=O)O)CCN(CC(=O)[O-])CC1.[Gd+3]` [Dotarem], the “ratio index (time for relaxation value to drop to 80% of initial value)” value in series [1] is listed as “exceeds 5000 min”.

In the case of “Ac-G IAAIEQK IAANEWK DAAIXQK IAAIEQK IAAIEQK G-NH2 [Tb(KH2-20X)]”, the cleaved bond result in the series with trypsin was “Lys-G, major; also recorded: Lys-I”.

Take `O=C([O-])CN1CCN(CC(=O)[O-])CCN(CC(=O)[O-])CCN(CC(=O)[O-])CC1.[Gd+3]` [Gd-DOTA]: in series [2], the “r 1 relaxivity at 1.5 T” value is reported as 4.3 mM^–1 s^–1 and the “r 2 relaxivity at 1.5 T” value is reported as 5.7 mM^–1 s^–1.

On to “Ac-G IAAIEQK IAANEWK DAAIEQK IAAIEQK IAAIEQK G-NH2 [Tb(MB1-2)3]”, for which the cleaved bond result with trypsin is listed as “Lys-G, major”.

For the molecule `CNC[C@H](O)[C@@H](O)[C@H](O)[C@H](O)CO.CNC[C@H](O)[C@@H](O)[C@H](O)[C@H](O)CO.O=C([O-])CN(CCN(CC(=O)[O-])CC(=O)O)CCN(CC(=O)[O-])CC(=O)O.[Gd+3]` [Magnevist], the “ratio index (time for relaxation value to drop to 80% of initial value)” value in series [1] is reported as roughly 250 min.
